Key:
NSG healthy mice = test: Chronic toxicity of daunorubicin on NSG healthy mice; format: in vivo, mouse
Description: NSG adult male mice, weighing 26–34 g, were used. Daunorubicin was dissolved in distilled water at a concentration that allowed the dose to be given in a volume of 0.1 mL/10 g body weight. In this experiment, each group consisted of 3 mice, which were treated by intraperitoneal (i.p.) administration on days 1, 4, 8, 12 and 16. The toxicity was assessed on the basis of lifespan and body weight and the survival time was followed for 20 days.

[1] = tested on: HT-29 orthotopic primary human colon carcinoma; test: Tumor growth inhibition, orthotopic HT-29 human colon carcinoma in NSG mice; format: in vivo, mouse; conditions: orthotopic HT-29 in NSG mice, Dau 1 mg/kg i.v. weekly x7, 7 mice/group; for Tumor growth inhibition compared to the control group: tumor weight on day 50, bioconjugates 15 mg Dau content/kg i.v. x5 then 7.5 mg Dau content/kg i.p. x8, twice a week; for Tumor weight on day 50 after tumor transplantation: relative to control, bioconjugates 15 mg Dau content/kg i.v. x5 then 7.5 mg/kg i.p. x8, mean
Source text: Female NSG mice, weighing 24–28 g, were used in this study. The xenografts were established by subcutaneous injection of ca. 10^6 HT-29 (GnRH receptor positive) human colon carcinoma cells, which were from ATCC and cultured according to their standards. The mice with palpable tumors were killed by cervical-dislocation, disinfected with iodine, and the subcutaneous tumor was dissected out aseptically. Tumor pieces of 2–3 mm^3 were transplanted under aseptic conditions, orthotopically, into narcotized NSG mice.
For direct implantation, mice were anesthetized (narcotic mixture: tiletamine, zolazepam, xylazine, butorphanol) and the abdomen was sterilized with iodine and alcohol swabs. A small midline incision (0.5 cm) was made and the colorectal part of the intestine was exteriorized. Serosa of the site where the tumor pieces were to be implanted was removed. A piece of 2 mm^3 HT-29 human colon tumor was implanted on the top of the animal intestine; an 8/0 surgical (polypropylene) suture was used to suture it on the wall of the intestine. The intestine was returned to the abdominal cavity and the abdominal wall was closed with 4/0 surgical (polyglycolic acid) sutures. The wound was sterilized with iodine and alcohol swab again and the animals were kept in a sterile environment. For pain release and rehydration, mice were treated s.c. with 100 mg/kg algopyrine in Ringer solution containing 5 % glucose. On the next day, no signs of pain and stress of mice were observed.
(§1) Based on the results of the chronic toxicity study, we used only 1 mg (1.773 μmol)/kg free Dau, weekly, in the Dau treated group. Thirteen treatments were applied from the day 5 after tumor transplantation until the day 50 in the groups treated with the bioconjugates (every Monday and Thursday). The treatments were performed by i.v. (intravenous) or i.p. administration; the compounds were dissolved in distilled water (0.1 mL/10 g body weight).
In this experiment, 7 mice/group were used for the treatment with the bioconjugates (GnRH-III[^4Lys(Ac),^8Lys(Dau = Aoa)] and GnRH-III[^4Lys(Bu),^8Lys(Dau = Aoa)]) as well as in the control group.
The bioconjugates were administered at different doses during the treatment period. In the first five treatments, they were i.v. administered, at a dose of 28.435 μmol/kg body weight (15 mg Dau content in the bioconjugate/kg). From the 6th to the 13th treatment, they were i.p. administered at a dose of 14.217 μmol/kg body weight (7.5 mg Dau content in the bioconjugate/kg). The first five doses represented the initial round of treatments, which was followed by the maintenance therapy. […]
After that, the tumors were removed and the tumor weight was determined in all cases. […]

liver = test: Macroscopic liver toxicity (liver weight); format: in vivo, mouse; conditions: Dau 1 mg/kg i.v. weekly x7; for Liver weight on day 50 after tumor transplantation: relative to control, HT-29 bearing NSG mice, bioconjugates 15 then 7.5 mg Dau content/kg twice a week, mean
Description: as §1
(§2) The bioconjugates were administered at different doses during the treatment period. In the first five treatments, they were i.v. administered, at a dose of 28.435 μmol/kg body weight (15 mg Dau content in the bioconjugate/kg). From the 6th to the 13th treatment, they were i.p. administered at a dose of 14.217 μmol/kg body weight (7.5 mg Dau content in the bioconjugate/kg). The first five doses represented the initial round of treatments, which was followed by the maintenance therapy. In the maintenance treatments, 5 % glucose solution instead of distilled water was used, in order to minimize the harmful effects of tfa salts that were present in the lyophilized bioconjugates.
(§3) The mice from all groups were sacrificed by deadly overslept cocktail (0.3 mL/mouse concentrated nembutal (pentobarbitone) solution), on day 50 after tumor transplantation.

heart = test: Liver- and cardiotoxicity, histological examination and side effects; format: in vivo, mouse; conditions: at the applied doses; liver weight, hematoxylin and eosin histology of heart, light microscopy
Source text: The removed and fixed tissue samples were dehydrated in a graded series of ethanol, infiltrated with xylene and embedded into paraffin. Histological sections were stained with Harris hematoxylin and eosin (10:1, v/v, 1 % solutions) in acidified 70 % ethanol and mounted. The histological samples were examined under a light microscope (Olympus CH30, Olympus Optical, Japan).

[2] = tested on: HT-29 orthotopic primary human colon carcinoma; test: Macroscopic metastases on different organs; format: in vivo, mouse; conditions: orthotopic HT-29 in NSG mice, day 50; 7 animals in each group
Description: as §1, §2, §3

[3] = tested on: HT-29 orthotopic primary human colon carcinoma; test: Proliferative index in orthotopic HT-29 tumor tissues (BrdU); format: in vivo, mouse; conditions: orthotopic HT-29 in NSG mice, BrdU positive cells; relative to control; mean
Description: (§4) Before ending the experiment (30 min prior to sacrificing the mice), the tumor bearing animals were injected i.p. with 5-bromo-2 V-deoxyuridine (BrdU, 200 mg/kg; Sigma-Aldrich Kft, Budapest, Hungary). After 6 h, 5–7 μm thick tissue sections were excised from the newly frozen tumors and used for the detection of BrdU positive cells using an anti-BrdU monoclonal antibody (Becton Dickinson Hungary Kft., Budapest, Hungary), according to the manufacturer’s protocol. Positive cells were visualized with TRITC-conjugated anti-mouse IgG (1:100, Sigma). Endothelial cells were distinguished from tumor cells by treating the samples with rat anti-mouse CD31 antibody and labelled with biotinylated anti-rat IgG and streptavidin-FITC (Vector Laboratories, Burlingame, CA). The nuclei were stained with the Hoechst 33,342 dye (Molecular Probes, Eugene, OR). The number of labelled HT-29 tumor cells and the quantity of CD31-positive samples were determined in two different tumors by microscopic analysis of 6 independent regions. The vascularization extent of primary tumors was determined by microscopic analysis of two different living tumors, where four independent areas of living cells were counted and the percentage of separated endothelial cells covering a 10× magnification field of vision was calculated.

[4] = tested on: HT-29 orthotopic primary human colon carcinoma; test: Vascularization in orthotopic HT-29 tumor tissues (CD31); format: in vivo, mouse; conditions: orthotopic HT-29 in NSG mice, CD31-positive endothelial cells; control 100 %; mean
Description: as §4

GnRH receptor = conditions: butyrated compared with acetylated bioconjugate; cited from earlier work
Source text: (§5) In our research, lamprey GnRH-III (Glp-His-Trp-Ser-His-Asp-Trp-Lys-Pro-Gly-NH2, where Glp is pyroglutamic acid) has been employed as a key molecule for drug targeting. […] Thus, hormonal side effects in case of targeted tumor therapy using GnRH-III as a homing device are expected to be insignificant, this feature being important in the treatment of hormone independent tumors like colorectal cancer. Considering that lysine in position 8 of GnRH-III can be us ...

[5] = tested on: HT-29 human colon cancer cells; conditions: cited from earlier work
Source text: as §5

[6] = butyrated version compared with acetylated; previous in vitro studies; cited from earlier work
Source text: In our research, GnRH-III peptide was mainly employed as a targeting moiety, due to its low endocrine effect in mammals and significant antiproliferative effect on different types of cancer cells. […] However, the efficacy of the bioconjugates was highly dependent on the tumor type and whether this was subcutaneously or orthotopically developed in mice. Orthotopically developed tumors represent the ...

In the case of `COc1cccc2c1C(=O)c1c(O)c3c(c(O)c1C2=O)C[C@@](O)(C(C)=O)C[C@@H]3O[C@H]1C[C@H](N)[C@H](O)[C@H](C)O1` [Daunorubicin], the “Day on which the first animal died” value (NSG healthy mice; 1 mg/kg i.p. on days 1, 4, 8, 12 and 16, NSG healthy male mice, 3 mice/group, experiment stopped on day 20) is reported as 20 days, the Mice died (NSG healthy mice; 2 mg/kg i.p. on days 1, 4, 8, 12 and 16, died on day 13 after the fourth treatment, NSG healthy male mice, 3 mice/group) is reported as 2 of 3 and the Body weight change (NSG healthy mice; 1 or 2 mg/kg i.p. on days 1, 4, 8, 12 and 16, both doses, NSG healthy male mice) is reported as “significant loss of weight”. For the same molecule, the “Body weight of the animals at the end” value (NSG healthy mice; decreased from ~30 g during 20 days, i.p. on days 1, 4, 8, 12 and 16, NSG healthy male mice) was ~ 20 g, the Maximum tolerated dose (NSG healthy mice; immunodeficient tumor bearing mice) was 1–2 mg/kg/week and the “Tumor growth inhibition compared to the control group” value [1] was “about 30%”. The “Tumor weight on day 50 after tumor transplantation” value [1] was 70.3%, the “Liver weight on day 50 after tumor transplantation” value (liver) was 89.1% and the “Decrease of average liver weight” value (liver; vs control, day 50, not significant) was “about 11%”. The Liver- or cardiotoxicity (heart) was “neither the bioconjugates nor the free daunorubicin showed any liver- or cardiotoxicity”, the “Metastasis on diaphragm, animals affected/animals in group” value [2] was 3/7 and the “Metastasis on diaphragm, percent of animals” value [2] was 42.9%. For the same molecule, the “Metastasis on liver, animals affected/animals in group” value [2] was 7/7, the “Metastasis on liver, percent of animals” value [2] was 100% and the “Metastasis on lung, animals affected/animals in group” value [2] was 7/7. The “Metastasis on lung, percent of animals” value [2] was 100%, the “Metastasis on lymph node, animals affected/animals in group” value [2] was 4/7 and the “Metastasis on pancreas, animals affected/animals in group” value [2] was 0/7. For the same molecule, the “Metastasis on pancreas, percent of animals” value [2] was 0%, the “Metastasis on spleen, animals affected/animals in group” value [2] was 0/7 and the “Metastasis on spleen, percent of animals” value [2] was 0%. The “Proliferation index (%)” value [3] was 98.6% and the “Vascularization (number of blood vessels), to the control” value [4] was 112%.

For GnRH-III[^4Lys(Bu),^8Lys(Dau = Aoa)], the “Tumor growth inhibition compared to the control group” value [1] was ~ 40%, the “Tumor weight on day 50 after tumor transplantation” value [1] was 60.6% and the “Liver weight on day 50 after tumor transplantation” value (liver) was 105.0%. For the same molecule, the “Metastasis on diaphragm, animals affected/animals in group” value [2] was 3/7, the “Metastasis on diaphragm, percent of animals” value [2] was 42.9% and the “Metastasis on liver, animals affected/animals in group” value [2] was 7/7. For the same molecule, the “Metastasis on liver, percent of animals” value [2] was 100%, the “Metastasis on lung, animals affected/animals in group” value [2] was 7/7 and the “Metastasis on lung, percent of animals” value [2] was 100%. The “Metastasis on lymph node, animals affected/animals in group” value [2] was 3/7, the “Metastasis on lymph node, percent of animals” value [2] was 42.9% and the “Metastasis on pancreas, animals affected/animals in group” value [2] was 0/7. For the same molecule, the “Metastasis on pancreas, percent of animals” value [2] was 0%, the “Metastasis on spleen, animals affected/animals in group” value [2] was 1/7 and the “Metastasis on spleen, percent of animals” value [2] was 14.3%. For the same molecule, the “Proliferation index (%)” value [3] was 84.5%, the “Binding to the GnRH receptor (affinity)” value (GnRH receptor) was “higher affinity” and the IC50 [5] was 2.2 ± 0.6 µM. The Cellular uptake [6] was “higher receptor binding affinity and cellular uptake”.

From publication PMC4919375, “Improved in vivo antitumor effect of a daunorubicin - GnRH-III bioconjugate modified by apoptosis inducing agent butyric acid on colorectal carcinoma bearing mice” (Investigational New Drugs, 2016)
